Data set [1] concerns CL-6 cholangiocarcinoma cell line. Description: MTT cytotoxicity assay, CL-6. The note with it: for Cell viability: highest concentration (atractylodin 125 µg/mL, ALNPs-1 6,000 µg/mL), range. As for the experimental part: (§1) Human cholangiocarcinoma (CCA) cell lines, CL-6 and HuCC-T1, and normal fibroblast cell line, OUMS-36T-1F, were used for cytotoxicity assay. CL-6 and HuCC-T1 cell lines were cultured in RPMI medium and OUMS-36T-1F cell line was cultured in DMEM medium. Both culture media were prepared as complete medium supplemented with 10% (v/v) FBS and 1% antibiotic-antimycotic solution (100 IU/mL). All cell cultures were maintained at 37°C under 5% CO2 atmosphere and 95% humidity ([…] 150i, Thermo scientific, MA, USA).
(§2) For cytotoxicity assay, the CCA and normal cell lines were exposed to various concentrations of ALNPs-1 (47-6,000 µg/mL, 100 µL each), blank NPs-1 (47-6,000 µg/mL, 100 µL each), atractylodin (1-125 µg/mL), 5-FU (positive control, 1-125 µg/mL), or serum-free medium (negative control) in a 96-well plate. Briefly, 8,000 cells (in 100 µL complete medium) were seeded into each well and pre-incubated at 37°C under 5% CO2 for 24 h. Viability of each cell following exposure to ALNPs-1, blank NPs-1, atractylodin, and 5-FU was determined by MTT assay at 24, 48, and 72 h of exposure (Chittasupho et al., 2017). Absorbance of cell suspension was measured at 550 nm using UV Absorbance Reader (Vario skan flash, Thermo Fisher scientific, MA, USA). Cell viability was calculated using the Equation (4):
(§3) Cell viability %=Absorbance of cell treated with sample/absorbance of negative control cells×100
(§4) IC50 (concentration that inhibits cell growth by 50%) of each compound in each cell line was determined using Graphpad Prism version 7.04 (GraphPad Software, CA, USA). Selectivity index (SI) was determined from the ratio of IC50 of ALNPs-1, atractylodin, or 5-FU in normal cell and CCA cell.
(In general: Tetrazolium dyes change colour on reduction, which living cells bring about.)

In data set [2] the test system is HuCC-T1 cholangiocarcinoma cell line. In words: MTT cytotoxicity assay, HuCC-T1. The conditions noted are these: for Cell viability: highest concentration (atractylodin 125 µg/mL, ALNPs-1 6,000 µg/mL), range. The procedure:
as §1, §2, §3, §4

The test system of data set [3] is OUMS-36T-1F normal fibroblast cell line. Description: MTT cytotoxicity assay, OUMS-36T-1F. The note with it: for Cell viability: highest concentration (atractylodin 125 µg/mL, ALNPs-1 6,000 µg/mL), range. As for the experimental part:
as §1, §2, §3, §4

The conditions of data set [4]: cited from earlier work.
Where [5] appears, read: ratio of IC50 in normal cell (OUMS-36T-1F) and CL-6, 24 hours.
Where [6] appears, read: ratio of IC50 in normal cell (OUMS-36T-1F) and CL-6, 48 hours.
The mark [7] stands for this setting: ratio of IC50 in normal cell (OUMS-36T-1F) and CL-6, 72 hours.
[8] abbreviates: ratio of IC50 in normal cell (OUMS-36T-1F) and HuCC-T1, 24 hours.
[9] abbreviates: ratio of IC50 in normal cell (OUMS-36T-1F) and HuCC-T1, 48 hours.
Setting [10] is: ratio of IC50 in normal cell (OUMS-36T-1F) and HuCC-T1, 72 hours.

Converted amounts (≈) assume the structure as drawn. Like-named read-outs stand apart in the source and are kept apart here.

The values below come from article PMC7445967, “The Potential of Atractylodin-Loaded PLGA Nanoparticles as Chemotherapeutic for Cholangiocarcinoma” (Asian Pacific Journal of Cancer Prevention : APJCP, 2020).

The IC50 is the concentration that gives 50% inhibition. `O=c1[nH]cc(F)c(=O)[nH]1` [5-FU, 5-fluorouracil]: the half-maximal inhibitory concentration (IC50) amounted to 77.4 µg/mL (≈ 595 µM) in data set [1] (Homo sapiens, 24 h); 38.8 µg/mL (≈ 299 µM) in data set [1] (Homo sapiens, 48 h); 3.46 µg/mL (≈ 26.6 µM) in data set [1] (Homo sapiens, 72 h); 38.9 µg/mL (≈ 299 µM) in data set [2] (Homo sapiens, HuCCT-1, 24 h); 25.9 µg/mL (≈ 199 µM) in data set [2] (Homo sapiens, HuCCT-1, 48 h); 8.2 µg/mL (≈ 63 µM) in data set [2] (Homo sapiens, HuCCT-1, 72 h). In addition, the concentration for half-maximal inhibition (IC50) in data set [3] (Homo sapiens, Fibroblast, 24 h) amounted to 133 µg/mL (≈ 1020 µM); in data set [3] (Homo sapiens, Fibroblast, 48 h), 49.8 µg/mL (≈ 383 µM); in data set [3] (Homo sapiens, Fibroblast, 72 h), 30.8 µg/mL (≈ 237 µM). The “Selectivity index (SI)” value was determined as 1.71 in data set [1] (setting [5]); 1.28 in data set [1] (setting [6]); 8.90 in data set [1] (setting [7]); 3.41 in data set [2] (setting [8]); 1.92 in data set [2] (setting [9]); 3.75 in data set [2] (setting [10]).
`C/C=C/C#CC#C/C=C/c1ccco1` [Atractylodin]: the half-inhibitory concentration (IC50) in data set [1] (CL-6, 24 h exposure, MTT) worked out at 56.36 µg/mL (≈ 309 µM); in data set [1] (CL-6, 48 h exposure, MTT), 37.66 µg/mL (≈ 207 µM); in data set [1] (CL-6, 72 h exposure, MTT) it was 52.02 µg/mL (≈ 285 µM); in data set [2] (HuCC-T1, 24 h exposure, MTT), 53.66 µg/mL (≈ 294 µM); in data set [2] (HuCC-T1, 48 h exposure, MTT) it was 59.74 µg/mL (≈ 328 µM); in data set [2] (HuCC-T1, 72 h exposure, MTT) it was 76.15 µg/mL (≈ 418 µM). The IC50 in data set [3] (OUMS-36T-1F, 24 h exposure, MTT) amounted to 84.33 µg/mL (≈ 463 µM); in data set [3] (OUMS-36T-1F, 48 h exposure, MTT), 58.16 µg/mL (≈ 319 µM); in data set [3] (OUMS-36T-1F, 72 h exposure, MTT) it was 69.03 µg/mL (≈ 379 µM). Further, the Cell viability in data set [1] (CL-6, 24 hours) is listed as 24.38-33.56%; in data set [1] (CL-6, 48 hours), 9.71-13.89%; in data set [1] (CL-6, 72 hours), 9.12-10.27%; in data set [2] (HuCC-T1, 24 hours), 23.72-30.39%; in data set [2] (HuCC-T1, 48 hours) it was 16.18-17.18%; in data set [2] (HuCC-T1, 72 hours), 16.43-20.57%. Moreover, the Cell viability in data set [3] (OUMS-36T-1F, 24 hours) was 39.61-41.50%; in data set [3] (OUMS-36T-1F, 48 hours), 14.88-15.37%; in data set [3] (OUMS-36T-1F, 72 hours), 6.61-7.92%. Also, the “Selectivity index (SI)” value was 1.50 in data set [1] (setting [5]); 1.54 in data set [1] (setting [6]); 1.33 in data set [1] (setting [7]); 1.57 in data set [2] (setting [8]); 0.97 in data set [2] (setting [9]); 0.91 in data set [2] (setting [10]). Also, the “Concentrations producing cytotoxic effect against normal cells” value in data set [3] (OUMS-36-1F normal cells) lay within 62.5 to 125 µg/mL. For the same molecule, the Solubility in water in data set [4] (free atractylodin, ref TGSC Information System, 2019) is 7.541 µg/mL (≈ 41.4 µM); in data set [4] (soluble in organic solvents such as ethyl acetate, DMSO, acetone, ref ChemFaces, 2018), “insoluble in water”.
